Source: PubChem BioAssay (NCI)
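The compound was tested at five concentrations on cells cultured in 96-well plates, with a 48-hour exposure period. At the GI50, growth is halved. TGI is the concentration that stops growth completely.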

What was measured:
Test in all cases: inhibition of tumour cell growth, NCI panel, 48 h
SF-268 CNS = tested on: SF-268 CNS
A549 NSCLC = tested on: A549 NSCLC
HT29 colon = tested on: HT29 colon
OVCAR-8 ovarian = tested on: OVCAR-8 ovarian
HOP-92 NSCLC = tested on: HOP-92 NSCLC
HS 578T breast = tested on: HS 578T breast
SK-MEL-2 melanoma = tested on: SK-MEL-2 melanoma
SF-295 CNS = tested on: SF-295 CNS
SF-539 CNS = tested on: SF-539 CNS
NCI-H460 lung = tested on: NCI-H460 lung

CON(C)C(=O)C1CCCO1 (centres undefined)
TGI (SF-268 CNS): > 100 µM | TGI (A549 NSCLC): > 100 µM | TGI (HT29 colon): > 100 µM | TGI (OVCAR-8 ovarian): > 100 µM | TGI (HOP-92 NSCLC): > 100 µM | TGI (HS 578T breast): > 100 µM | TGI (SK-MEL-2 melanoma): > 100 µM | TGI (SF-295 CNS): > 100 µM | TGI (SF-539 CNS): > 100 µM | TGI (NCI-H460 lung): > 100 µM

O=c1c2ccccc2sc2ccccc12
TGI (SF-268 CNS): > 100 µM | TGI (A549 NSCLC): > 100 µM | TGI (HT29 colon): > 100 µM | TGI (OVCAR-8 ovarian): > 100 µM | TGI (HOP-92 NSCLC): > 100 µM | TGI (HS 578T breast): > 100 µM | TGI (SK-MEL-2 melanoma): > 100 µM | TGI (SF-295 CNS): > 100 µM | TGI (SF-539 CNS): > 100 µM | TGI (NCI-H460 lung): > 100 µM

CC1(C)CC(C#Cc2ccccc2)CC(C)(C)N1O
TGI (SF-268 CNS): 83.1 µM | TGI (A549 NSCLC): 75.5 µM | TGI (HT29 colon): 29.4 µM | TGI (OVCAR-8 ovarian): 64 µM | TGI (HOP-92 NSCLC): 45 µM | TGI (HS 578T breast): 44.9 µM | TGI (SK-MEL-2 melanoma): 43.6 µM | TGI (SF-295 CNS): 35.1 µM | TGI (SF-539 CNS): 51.8 µM | TGI (NCI-H460 lung): 44.8 µM

COc1cc(C(O)c2ccc3c(c2)OCO3)cc(OC)c1OC (centres undefined)
TGI (SF-268 CNS): > 100 µM | TGI (A549 NSCLC): > 100 µM | TGI (HT29 colon): > 100 µM | TGI (OVCAR-8 ovarian): > 100 µM | TGI (HOP-92 NSCLC): > 100 µM | TGI (HS 578T breast): > 100 µM | TGI (SK-MEL-2 melanoma): > 100 µM | TGI (SF-295 CNS): > 100 µM | TGI (SF-539 CNS): > 100 µM | TGI (NCI-H460 lung): > 100 µM

CCOC(=O)c1sc2ncnc(N)c2c1C
TGI (SF-268 CNS): > 100 µM | TGI (A549 NSCLC): > 100 µM | TGI (HT29 colon): > 100 µM | TGI (OVCAR-8 ovarian): > 100 µM | TGI (HOP-92 NSCLC): 92.2 µM | TGI (HS 578T breast): > 100 µM | TGI (SK-MEL-2 melanoma): > 100 µM | TGI (SF-295 CNS): > 100 µM | TGI (SF-539 CNS): > 100 µM | TGI (NCI-H460 lung): > 100 µM

CC(C)/C(Cl)=N/OC(=O)Nc1ccc(OC(F)(F)F)cc1
TGI (SF-268 CNS): 39.1 µM | TGI (A549 NSCLC): 34.8 µM | TGI (HT29 colon): 35.9 µM | TGI (OVCAR-8 ovarian): 33.5 µM | TGI (HOP-92 NSCLC): 3.71 µM | TGI (HS 578T breast): 43 µM | TGI (SK-MEL-2 melanoma): 28.1 µM | TGI (SF-295 CNS): 33.1 µM | TGI (SF-539 CNS): 31.3 µM | TGI (NCI-H460 lung): 31.2 µM

COc1ccc(-n2nc(C)c3c(Nc4ccc(NC(=O)Nc5ccc(Cl)c(C(F)(F)F)c5)cc4)ncnc32)cc1
GI50 (SF-268 CNS): 2.61 µM | TGI (SF-268 CNS): 7.99 µM | GI50 (A549 NSCLC): 1.88 µM | TGI (A549 NSCLC): 6.31 µM | GI50 (HT29 colon): 1.8 µM | TGI (HT29 colon): 4.17 µM | GI50 (OVCAR-8 ovarian): 2.84 µM | TGI (OVCAR-8 ovarian): 11.7 µM | GI50 (HOP-92 NSCLC): 1.81 µM | TGI (HOP-92 NSCLC): 5.2 µM | GI50 (HS 578T breast): 1.58 µM | TGI (HS 578T breast): 4.2 µM | GI50 (SK-MEL-2 melanoma): 2.23 µM | TGI (SK-MEL-2 melanoma): 4.43 µM | GI50 (SF-295 CNS): 1.58 µM | TGI (SF-295 CNS): 3.49 µM | GI50 (SF-539 CNS): 1.24 µM | TGI (SF-539 CNS): 3.2 µM | GI50 (NCI-H460 lung): 2.17 µM | TGI (NCI-H460 lung): 5.07 µM

O=S1(=O)C[C@@H](NCc2ccccc2)[C@H](NCc2ccccc2)C1
TGI (SF-268 CNS): > 100 µM | TGI (A549 NSCLC): > 100 µM | TGI (HT29 colon): > 100 µM | TGI (OVCAR-8 ovarian): > 100 µM | TGI (HOP-92 NSCLC): > 100 µM | TGI (HS 578T breast): > 100 µM | TGI (SK-MEL-2 melanoma): > 100 µM | TGI (SF-295 CNS): > 100 µM | TGI (SF-539 CNS): > 100 µM | TGI (NCI-H460 lung): > 100 µM

COc1ccc2c(c1)c(=O)c1c(NCCNCCO)ccc3c(=O)n(CCN(C)C)c(=O)n2c31
TGI (SF-268 CNS): 0.619 µM | TGI (A549 NSCLC): 3.17 µM | TGI (HT29 colon): 0.425 µM | TGI (OVCAR-8 ovarian): 1.16 µM | TGI (HOP-92 NSCLC): 0.775 µM | TGI (HS 578T breast): 0.581 µM | TGI (SK-MEL-2 melanoma): 0.634 µM | TGI (SF-295 CNS): 1.84 µM | TGI (SF-539 CNS): 0.612 µM | TGI (NCI-H460 lung): 0.266 µM

CC(C)[Si](OC/C(=C/COC(C)(C)C)[C@H]1CC=C(C(=O)c2ccccc2N2CN(C)C(=O)N(C)C2)C1)(C(C)C)C(C)C
TGI (SF-268 CNS): 17.3 µM | TGI (A549 NSCLC): 23 µM | TGI (HT29 colon): 18.7 µM | TGI (OVCAR-8 ovarian): 18.1 µM | TGI (HOP-92 NSCLC): 25.1 µM | TGI (HS 578T breast): 13.2 µM | TGI (SK-MEL-2 melanoma): 28.9 µM | TGI (SF-295 CNS): 28.9 µM | TGI (SF-539 CNS): 17.8 µM | TGI (NCI-H460 lung): 28.7 µM

CN(C)c1ccc(Cc2cc3c(O)ccc(O)c3cc(Cc3ccc(N(C)C)cc3)c2=O)cc1
TGI (SF-268 CNS): > 77.5 µM | TGI (A549 NSCLC): > 77.1 µM | TGI (HT29 colon): 37.1 µM | TGI (OVCAR-8 ovarian): 77.4 µM | TGI (HOP-92 NSCLC): 14.5 µM | TGI (HS 578T breast): 97.9 µM | TGI (SK-MEL-2 melanoma): > 68.9 µM | TGI (SF-295 CNS): > 100 µM | TGI (SF-539 CNS): 60.9 µM | TGI (NCI-H460 lung): > 100 µM

C=CC(=O)N1C/C(=C\c2ccc(Cl)cc2)C(=O)/C(=C/c2ccc(Cl)cc2)C1
TGI (SF-268 CNS): 0.617 µM | TGI (A549 NSCLC): 1.64 µM | TGI (HT29 colon): 0.326 µM | TGI (OVCAR-8 ovarian): 3.84 µM | TGI (HOP-92 NSCLC): 4.25 µM | TGI (HS 578T breast): 1.36 µM | TGI (SK-MEL-2 melanoma): 2.85 µM | TGI (SF-295 CNS): 0.917 µM | TGI (SF-539 CNS): 0.419 µM | TGI (NCI-H460 lung): 1.18 µM

O=C(OCC1OC(n2nc(Cn3nnc(-c4cccnc4)n3)n(-c3cccc4ccccc34)c2=S)C(OC(=O)c2ccccc2)C1OC(=O)c1ccccc1)c1ccccc1 (centres undefined)
TGI (SF-268 CNS): > 100 µM | TGI (A549 NSCLC): > 100 µM | TGI (HT29 colon): > 100 µM | TGI (OVCAR-8 ovarian): > 100 µM | TGI (HOP-92 NSCLC): > 100 µM | TGI (HS 578T breast): > 100 µM | TGI (SK-MEL-2 melanoma): > 100 µM | TGI (SF-295 CNS): > 100 µM | TGI (SF-539 CNS): > 100 µM | TGI (NCI-H460 lung): > 100 µM

N#Cc1c(-c2ccccc2)c2c([nH]c1=O)-c1cc([N+](=O)[O-])ccc1CCC2
TGI (SF-268 CNS): > 100 µM | TGI (A549 NSCLC): > 100 µM | TGI (HT29 colon): > 100 µM | TGI (OVCAR-8 ovarian): > 100 µM | TGI (HOP-92 NSCLC): 58.9 µM | TGI (HS 578T breast): > 100 µM | TGI (SK-MEL-2 melanoma): 59.3 µM | TGI (SF-295 CNS): 63.1 µM | TGI (SF-539 CNS): 82.5 µM | TGI (NCI-H460 lung): > 100 µM

COc1ccc(C2c3cc4c(cc3OC(NCCO)C2C)OCO4)cc1 (centres undefined)
TGI (SF-268 CNS): 72.6 µM | TGI (A549 NSCLC): 68.8 µM | TGI (HT29 colon): 43.5 µM | TGI (HOP-92 NSCLC): 86.1 µM | TGI (HS 578T breast): 59.3 µM | TGI (SK-MEL-2 melanoma): 50.8 µM | TGI (SF-295 CNS): 89.1 µM | TGI (SF-539 CNS): 40.5 µM | TGI (NCI-H460 lung): 63.6 µM

c1ccc([P+](CCCCCCCC[P+](c2ccccc2)(c2ccccc2)c2ccccc2)(c2ccccc2)c2ccccc2)cc1
TGI (SF-268 CNS): > 100 µM | TGI (A549 NSCLC): > 100 µM | TGI (HT29 colon): > 50 µM | TGI (OVCAR-8 ovarian): > 100 µM | TGI (HOP-92 NSCLC): 43.9 µM | TGI (HS 578T breast): > 100 µM | TGI (SK-MEL-2 melanoma): 24.7 µM | TGI (SF-295 CNS): > 72.9 µM | TGI (SF-539 CNS): 19.6 µM | TGI (NCI-H460 lung): > 48.1 µM

C[n+]1c(/C=C/c2ccc(O)c3ncccc23)[se]c2ccccc21
TGI (SF-268 CNS): 27.6 µM | TGI (A549 NSCLC): 42 µM | TGI (HT29 colon): 20.7 µM | TGI (OVCAR-8 ovarian): 29.8 µM | TGI (HOP-92 NSCLC): 22.3 µM | TGI (HS 578T breast): 63.5 µM | TGI (SK-MEL-2 melanoma): 18.3 µM | TGI (SF-295 CNS): 25.1 µM | TGI (SF-539 CNS): 21.3 µM | TGI (NCI-H460 lung): 9.34 µM

O=S1(=O)c2cnccc2NC(=NCc2ccccc2)N1c1ccccc1
TGI (SF-268 CNS): > 100 µM | TGI (A549 NSCLC): > 100 µM | TGI (HT29 colon): > 100 µM | TGI (OVCAR-8 ovarian): > 100 µM | TGI (HOP-92 NSCLC): > 100 µM | TGI (HS 578T breast): > 100 µM | TGI (SK-MEL-2 melanoma): > 100 µM | TGI (SF-295 CNS): > 100 µM | TGI (SF-539 CNS): > 100 µM | TGI (NCI-H460 lung): > 100 µM

O=C(/C=C/c1ccc2c(c1)OCO2)Cc1nc2ccccc2[nH]c1=O
TGI (SF-268 CNS): 55.3 µM | TGI (A549 NSCLC): 62 µM | TGI (HT29 colon): > 100 µM | TGI (OVCAR-8 ovarian): > 100 µM | TGI (HOP-92 NSCLC): 73.3 µM | TGI (HS 578T breast): 40 µM | TGI (SK-MEL-2 melanoma): 50.7 µM | TGI (SF-295 CNS): 52.7 µM | TGI (SF-539 CNS): > 100 µM | TGI (NCI-H460 lung): > 100 µM

O=C1CS(=O)(=O)C(c2cccc(Oc3ccccc3)c2)N1c1cc(Cl)ccc1Cl (centres undefined)
TGI (SF-268 CNS): 52.8 µM | TGI (A549 NSCLC): > 100 µM | TGI (HT29 colon): 47.8 µM | TGI (OVCAR-8 ovarian): 43.9 µM | TGI (HOP-92 NSCLC): 38.8 µM | TGI (HS 578T breast): > 100 µM | TGI (SK-MEL-2 melanoma): 30.2 µM | TGI (SF-295 CNS): 62.1 µM | TGI (SF-539 CNS): 44.6 µM | TGI (NCI-H460 lung): 53.5 µM
